The values below come from ChEMBL document CHEMBL4118162, “Discovery of novel anti-tuberculosis agents with pyrrolo[1,2-a]quinoxaline-based scaffold” (Bioorg Med Chem Lett, 2018).

Converted amounts (≈) assume the structure as drawn. Bounds are passed on as bounds.

For data set [1], the system named is Mycobacterium tuberculosis. Description: Antitubercular activity against Mycobacterium tuberculosis H37Ra up to 7 days. The format is functional. The settings on record: 168 h.
Data set [2] in a line: Solubility of the compound in water at 500 ug/mL by HPLC method. The format is physicochemical.
In data set [3] the target is T1, Enoyl-[acyl-carrier-protein] reductase [NADH] (Mycobacterium tuberculosis) (UniProt P9WGR1).
T1 sequence (whole entry): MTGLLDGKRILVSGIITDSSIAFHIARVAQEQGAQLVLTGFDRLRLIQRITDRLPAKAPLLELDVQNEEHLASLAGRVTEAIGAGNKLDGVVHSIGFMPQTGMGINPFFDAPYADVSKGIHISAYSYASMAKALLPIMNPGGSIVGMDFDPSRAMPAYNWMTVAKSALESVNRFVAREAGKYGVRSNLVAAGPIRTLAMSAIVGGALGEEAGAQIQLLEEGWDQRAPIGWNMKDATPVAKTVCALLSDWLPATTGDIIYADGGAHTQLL
The data set can be described thus: Inhibition of Mycobacterium tuberculosis InhA at 100 uM using trans-2-decenoyl-N-acetylcysteamine as substrate preincubated for 1 hr followed by substrate addition measured every 30 secs for 5 mins.

Data set [4] deals with Mycobacterium tuberculosis. The data set can be described thus: Antitubercular activity against Mycobacterium tuberculosis H37Ra assessed as as inhibition of bacterial growth at 10 ug/ml up to 7 days. The settings on record: 168 h, read-out: GI. Type of data set: functional.
The nature of data set [5]: Cytotoxicity against human LO2 cells assessed as growth inhibition up to 20 uM after 48 hrs by MTT assay. The format is cell-based, L02. Conditions: read-out: GI. A general note: Tetrazolium dyes change colour on reduction, which living cells bring about.
Data set [6] in a line: Cytotoxicity against human SKOV3 cells assessed as growth inhibition up to 20 uM after 48 hrs by MTT assay. Type of data set: cell-based, SK-OV-3. Conditions: read-out: GI.
Data set [7] is described as follows: Cytotoxicity against human MDA231 cells assessed as growth inhibition up to 20 uM after 48 hrs by MTT assay. Type of data set: cell-based, MDA-MB-231. Conditions: read-out: GI.
The target in data set [8] is T2, Enoyl-[acyl-carrier-protein] reductase [NADH] (Mycobacterium tuberculosis, UniProt P9WGR1).
T2 sequence (P9WGR1 whole entry): T1 sequence (whole entry)
Description: Inhibition of Mycobacterium tuberculosis InhA using trans-2-decenoyl-N-acetylcysteamine as substrate preincubated for 1 hr followed by substrate addition measured every 30 secs for 5 mins.

A short description of data set [9]: Solubility of the compound in water at 180 uM by HPLC method. The format is physicochemical.
The nature of data set [10]: Effective permeability of the compound in PBS/EtOH at 50 ug/mL after 18 hrs by PAMPA-BBB assay.

By MIC90 is commonly meant the lowest concentration that inhibits either 90% of growth or 90% of the strains tested, depending on the study. A word on the solubility: it is how much of the substance goes into solution per volume. Low readings indicate a poorly soluble substance, high ones a readily soluble substance. Regarding `COc1ccc(CCNCc2cc(-c3ccccc3F)n3c2cnc2ccccc23)cc1OC`, the MIC90 in [1] lay in the range of 10 to 50 µg/mL (≈ 22 to 110 µM). The same compound came in with a solubility in data set [2] of 50.7 µg/mL (≈ 111 µM). Also, the inhibition in data set [3] amounted to 6.28%. For the same compound, the inhibition of growth at 10 µg/mL in [4] was not below 90%.

Consider `Fc1ccccc1-c1cc(CNCc2c(F)cccc2Cl)c2cnc3ccccc3n12`, for which the MIC90 in [1] was more than 50 µg/mL. The same compound gave a solubility in [2] of 20.8 µg/mL (≈ 48 µM). The inhibition of growth at 10 µg/mL in data set [4] is not below 90%.

The compound `CCCNCc1cc(-c2ccccc2F)n2c1cnc1cc(Cl)ccc12` registered an MIC90 in [1] of 10 µg/mL (≈ 27.2 µM). In [2], this compound showed a solubility of 17.5 µg/mL (≈ 47.6 µM). Also, the inhibition at 48 h is 73.7% in data set [5], 77% in data set [6] and 74.5% in data set [7]. In addition, the inhibition in data set [3] is 24.8%. The inhibition of growth at 10 µg/mL in data set [4] was not below 90%.

Take `CC(C)NCc1cc(-c2ccccc2F)n2c1cnc1cc(Cl)ccc12`: in data set [1], the MIC90 turned out to be 10 µg/mL (≈ 27.2 µM). In addition, the solubility in data set [2] was found to be 33.2 µg/mL (≈ 90.1 µM). For the same compound, the inhibition at 48 h came to 76.4% in [5], 76.4% in data set [6] and 71.7% in [7]. The inhibition in data set [3] was found to be 27.4%. Further, the inhibition of growth at 10 µg/mL in data set [4] was not below 90%.

The term IC50 denotes the concentration needed to halve the response being measured. Higher therefore signals lower potency. Take `Fc1ccccc1-c1cc(CNCCc2ccc(Br)cc2)c2cnc3cc(Cl)ccc3n12`: the MIC90 in data set [1] came out at 5 µg/mL (≈ 9.83 µM). The same compound yielded a solubility in data set [2] of less than 2.5 µg/mL. Moreover, the inhibition at 48 h was found to be 40.1% in [5], 71.8% in [6] and 70.5% in [7]. Further, in data set [3], the inhibition turned out to be 64.9%. In addition, in [8], the IC50 was 48 µM. Further, the inhibition of growth at 10 µg/mL in data set [4] was not below 90%.

Compound `CCCCNCc1cc(-c2ccccc2F)n2c1cnc1ccccc12` gave an MIC90 in data set [1] of 10 to 50 µg/mL (≈ 28.8 to 144 µM). Also, the solubility in data set [2] worked out at 120 µg/mL (≈ 346 µM). For the same compound, the inhibition in data set [3] amounted to 14.4%. Moreover, the inhibition of growth at 10 µg/mL in data set [4] was not below 90%.

For `Fc1ccccc1-c1cc(CNCc2ccccc2)c2cnc3cc(Br)ccc3n12`, the MIC90 in data set [1] came out at 10 µg/mL (≈ 21.7 µM). Moreover, in data set [2], the solubility was less than 2.5 µg/mL. Moreover, the inhibition at 48 h in [5] amounted to 5.38%; in data set [6] it was 13.3%; in data set [7], 32.1%. Further, the inhibition in data set [3] came out at 62%. This compound came in with an IC50 in data set [8] of 54 µM. Moreover, in data set [4], the inhibition of growth at 10 µg/mL is not below 90%.

`CCCNCc1cc(-c2ccccc2F)n2c1cnc1ccccc12`: in data set [1], the MIC90 lay within 10 to 50 µg/mL (≈ 30 to 150 µM). The same compound displayed a solubility in data set [2] of 73.3 µg/mL (≈ 220 µM). In addition, in data set [3], the inhibition is 5.21%. The inhibition of growth at 10 µg/mL in data set [4] is not below 90%.

In data set [1], `CCN(CC)Cc1cc(-c2ccccc2F)n2c1cnc1cc(Cl)ccc12` displayed an MIC90 of 10 to 50 µg/mL (≈ 26.2 to 131 µM). Also, the inhibition of growth at 10 µg/mL in [4] was not below 90%.

In the case of `CCCCNCc1cc(-c2ccccc2F)n2c1cnc1cc(Br)ccc12`, the MIC90 in [1] was 10 µg/mL (≈ 23.5 µM). The compound also had a solubility in [2] of 6.74 µg/mL (≈ 15.8 µM). In addition, the inhibition at 48 h in data set [5] came to 68.7%; in data set [6], 66.3%; in data set [7] it was 70.8%. Moreover, the inhibition in [3] came out at 50.2%. In data set [4], the inhibition of growth at 10 µg/mL is not below 90%.

Compound `CCN(Cc1ccccc1)Cc1cc(-c2ccccc2F)n2c1cnc1cc(Cl)ccc12` gave an MIC90 in data set [1] of more than 50 µg/mL. In [2], this compound registered a solubility of less than 2.5 µg/mL. Besides, the inhibition of growth at 10 µg/mL in data set [4] was not below 90%.

As for `Fc1ccccc1-c1cc(CNCc2c(F)cccc2Cl)c2cnc3cc(Cl)ccc3n12`, the MIC90 in [1] is more than 50 µg/mL. The compound also came in with a solubility in [2] of less than 2.5 µg/mL. Besides, the inhibition of growth at 10 µg/mL in data set [4] was not below 90%.

In [1], `Fc1ccccc1-c1cc(CN2CCN(c3ccccc3C(F)(F)F)CC2)c2cnc3cc(Cl)ccc3n12` displayed an MIC90 of more than 50 µg/mL. Also, the solubility in data set [2] was less than 2.5 µg/mL. Besides, the inhibition of growth at 10 µg/mL in data set [4] is not below 90%.

Turning to `Fc1ccccc1-c1cc(CNCc2ccccc2)c2cnc3ccccc3n12`, the MIC90 in data set [1] was in the range of 10 to 50 µg/mL (≈ 26.2 to 131 µM). In data set [2], this compound returned a solubility of 21.1 µg/mL (≈ 55.3 µM). The inhibition in data set [3] was determined as 22.1%. Also, in data set [4], the inhibition of growth at 10 µg/mL is not below 90%.

By Papp is commonly meant the rate of passage across a membrane or cell layer, normalised by area and donor concentration. A low value points to poor permeation. With `COc1ccc(CCNCc2cc(-c3ccccc3F)n3c2cnc2cc(Cl)ccc23)cc1OC`, the MIC90 in data set [1] was determined as 5 µg/mL (≈ 10.2 µM). The solubility at 180 µM in data set [9] stood at 90 µg/mL (≈ 184 µM). In addition, the inhibition at 48 h is 53.5% in data set [5], 84.4% in [6] and 76.4% in [7]. Moreover, in data set [3], the inhibition was found to be 40.4%. For the same compound, in data set [10], the Papp at 18 h, 50 ug/mL is 9.39 ×10⁻⁶ cm/s. The inhibition of growth at 10 µg/mL in data set [4] was not below 90%.

Regarding `CC(C)NCc1cc(-c2ccccc2F)n2c1cnc1ccccc12`, the MIC90 in [1] is 10 to 50 µg/mL (≈ 30 to 150 µM). Also, the solubility in data set [2] came to 70.5 µg/mL (≈ 212 µM). For the same compound, the inhibition in data set [3] worked out at 17.3%. The inhibition of growth at 10 µg/mL in data set [4] is not below 90%.

On to `Fc1ccc2c(c1)ncc1c(CNCc3ccccc3)cc(-c3ccccc3F)n12`, for which, in data set [1], the MIC90 is 10 µg/mL (≈ 25 µM). The same compound registered a solubility in data set [2] of 4.9 µg/mL (≈ 12.3 µM). Further, the figures for the inhibition at 48 h in [5], in data set [6] and in [7] were 20.1%, -7.09% and -8.04%, respectively. For the same compound, the inhibition in data set [3] amounted to 48.5%. In [4], the inhibition of growth at 10 µg/mL is not below 90%.

Turning to `Fc1ccccc1-c1cc(CN2CCOCC2)c2cnc3cc(Cl)ccc3n12`, the MIC90 in data set [1] was more than 50 µg/mL. The compound also showed a solubility in [2] of less than 2.5 µg/mL. The inhibition of growth at 10 µg/mL in data set [4] was not below 90%.

Compound `Fc1ccccc1-c1cc(CNCc2ccccc2)c2cnc3cc(Cl)ccc3n12` returned an MIC90 in data set [1] of 5 µg/mL (≈ 12 µM). The compound also showed a solubility in data set [2] of less than 2.5 µg/mL. For the same compound, the results for the inhibition at 48 h in data set [5], in data set [6] and in data set [7] were 43.7%, 19.4% and 27.8%, respectively. Moreover, the inhibition in data set [3] was 37%. Further, in data set [4], the inhibition of growth at 10 µg/mL was not below 90%.

Regarding `CCN(CC)Cc1cc(-c2ccccc2F)n2c1cnc1ccccc12`, the MIC90 in [1] was more than 50 µg/mL. In addition, the inhibition of growth at 10 µg/mL in data set [4] is not below 90%.

Turning to `CCCCNCc1cc(-c2ccccc2F)n2c1cnc1cc(F)ccc12`, in [1], the MIC90 was 25 µg/mL (≈ 68.4 µM). Further, the solubility in data set [2] came out at 8.61 µg/mL (≈ 23.6 µM). Also, the inhibition in [3] is 7.88%. Further, the inhibition of growth at 10 µg/mL in data set [4] is not below 90%.

In data set [1], `Fc1ccccc1-c1cc(CNCCc2ccc(Br)cc2)c2cnc3ccccc3n12` returned an MIC90 of 5 µg/mL (≈ 10.5 µM). For the same compound, in [2], the solubility was less than 2.5 µg/mL. In addition, the inhibition at 48 h amounted to 72.3% in data set [5], 69.3% in data set [6] and 76.1% in data set [7]. In [3], the inhibition amounted to 17.3%. Also, the inhibition of growth at 10 µg/mL in data set [4] was not below 90%.

`CCCCNCc1cc(-c2ccccc2F)n2c1cnc1cc(Cl)ccc12` registered an MIC90 in data set [1] of 10 µg/mL (≈ 26.2 µM). Further, the solubility in data set [2] came out at 20 µg/mL (≈ 52.3 µM). Also, the values for the inhibition at 48 h in [5], in data set [6] and in data set [7] were 73.7%, 75.9% and 74.5%, respectively. Moreover, in [3], the inhibition turned out to be 33.3%. Moreover, the inhibition of growth at 10 µg/mL in [4] was not below 90%.
